O=C(N[C@H](C(=O)O)c1ccccc1)OCc1ccccc1
solubility (mole fraction)
Conditions | 283.15 K | 288.15 K | 293.15 K | 298.15 K | 303.15 K | 313.15 K | 323.15 K
in 2-butanone | 0.0446 | – | 0.0596 | – | 0.0762 | 0.0957 | 0.111
in acetone | 0.0605 | – | 0.0786 | – | 0.1 | 0.129 | 0.159
in acetonitrile | 0.0067 | – | 0.00966 | – | 0.0143 | 0.0253 | 0.053
in dichloromethane | 0.00624 | 0.00703 | 0.00874 | 0.0112 | 0.0149 | – | –
in ethanol | 0.0235 | – | 0.0354 | – | 0.0581 | 0.0922 | 0.141
in ethyl acetate | 0.0209 | – | 0.0274 | – | 0.0371 | 0.0549 | 0.073
in isopropanol | 0.0107 | – | 0.0175 | – | 0.0328 | 0.0604 | 0.105
in methanol | 0.0325 | – | 0.0479 | – | 0.0794 | 0.111 | 0.146
in methyl acetate | 0.028 | – | 0.0399 | – | 0.0541 | 0.0739 | 0.0918
in n-propanol | 0.0141 | – | 0.0231 | – | 0.039 | 0.068 | 0.11
in water | 1.1e-05 | – | 2.4e-05 | – | 4.5e-05 | 5.7e-05 | 6.9e-05

From BigSolDB 2.1
